Laboratory results taken from PubChem BioAssay (NCI).
Values joined by “and” are separate entries in the source; they are usually repeats but may differ in a detail not shown here. Equal values may be shown once.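 Following 48 hours of exposure in 96-well plates, responses at five concentrations were used to interpolate endpoints linearly. GI50: concentration for 50% inhibition of growth. The concentration for full growth arrest is given as TGI.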

Assays:
Test in all cases: NCI-60 cell line screen, 48 h
DU-145 prostate = test system: DU-145 prostate
MCF7 breast = test system: MCF7 breast
A549 NSCLC = test system: A549 NSCLC
NCI-H23 lung = test system: NCI-H23 lung
U251 CNS = test system: U251 CNS
SNB-19 CNS = test system: SNB-19 CNS
HCT-15 colon = test system: HCT-15 colon
HOP-62 NSCLC = test system: HOP-62 NSCLC
MOLT-4 leukemia = test system: MOLT-4 leukemia
RXF 393 renal = test system: RXF 393 renal

Structure (SMILES)	GI50 (DU-145 prostate)	TGI (DU-145 prostate)	GI50 (MCF7 breast)	TGI (MCF7 breast)	GI50 (A549 NSCLC)	TGI (A549 NSCLC)	GI50 (NCI-H23 lung)	TGI (NCI-H23 lung)	GI50 (U251 CNS)	TGI (U251 CNS)	GI50 (SNB-19 CNS)	TGI (SNB-19 CNS)	GI50 (HCT-15 colon)	TGI (HCT-15 colon)	GI50 (HOP-62 NSCLC)	TGI (HOP-62 NSCLC)	GI50 (MOLT-4 leukemia)	TGI (MOLT-4 leukemia)	TGI (RXF 393 renal)	GI50 (RXF 393 renal)
O=C1c2ccccc2-c2c1c1cc3c(cc1c(=O)n2CCCCl)OCO3	> 100 µM	> 100 µM	17.7 µM	> 100 µM	36.3 µM	> 100 µM	21.5 µM	87.3 µM	22.8 µM	67.4 µM	> 100 µM	> 100 µM	> 100 µM	> 100 µM	12.3 µM	28.6 µM	35 µM	> 100 µM		
CN1CCN(C(=S)N(C)C(=O)c2ccc(Cl)cc2)CC1		> 100 µM		> 100 µM		> 100 µM		> 100 µM		> 100 µM		> 100 µM		> 100 µM				> 100 µM	> 100 µM	
CN(C)S(=O)(=O)Nc1ccccn1		> 100 µM		> 100 µM		> 100 µM		> 100 µM		> 100 µM		> 100 µM		> 100 µM		> 100 µM			> 100 µM	
c1ccc(-c2nnc(-c3nn(-c4ccccc4)c4nc5ccccc5nc34)o2)cc1						> 100 µM		> 100 µM		> 100 µM		> 100 µM		> 100 µM		> 100 µM		71.6 µM	41.4 µM	
O=C1NC(=O)C2C(=O)NC(=O)C1C2(c1ccccc1)c1ccc(Cl)cc1 (centres undefined)						> 100 µM		> 100 µM				> 100 µM		> 100 µM		> 100 µM		> 100 µM	> 100 µM	
C[Si](C)(C)c1ccc(CC2(Cc3ccc([Si](C)(C)C)cc3)CCNC2)cc1						5.22 µM		3.47 µM		3.02 µM		13.7 µM		4.86 µM		6 µM			3.14 µM	
CC1=C(CCCOC(=O)NCCCl)C2=C(C)C3(CC3)[C@@](C)(O)C(=O)C2=C1	1.14 µM	> 100 µM	2.24 µM	> 100 µM	3.42 µM	> 100 µM	1.83 µM	9.17 µM	3.97 µM	> 100 µM	3.83 µM	> 100 µM	2.84 µM	> 100 µM	2.37 µM	7.42 µM	5.49 µM	> 100 µM		
Clc1ccc(Cc2nc3cc4ccccc4cc3[nH]2)cc1	17.1 µM	> 100 µM	17.1 µM	> 100 µM	6.83 µM	> 100 µM	28.8 µM	> 100 µM	10.5 µM	29.6 µM	20 µM	> 100 µM	5.33 µM	26.4 µM	10.2 µM	30.8 µM			> 100 µM	> 100 µM
CCOC(=O)CCCO						> 100 µM		> 100 µM		> 100 µM		> 100 µM		> 100 µM				> 100 µM	> 100 µM	
O=C(O)CCCc1ccc(N(CCCl)CCCl)cc1	41.7 µM	590 µM and 191 µM		379 µM and 431 µM	12.7 µM and > 89.5 µM	> 92.2 µM and 633 µM and 621 µM				29.9 µM and 219 µM and 251 µM			29.6 µM and 117 µM	> 76.3 µM and 307 µM and 239 µM			0.999 µM	12.7 µM and 104 µM	23 µM and 118 µM and 97.7 µM	9.53 µM and 57.7 µM
Cc1c(N2C(=O)/C(=C\c3ccccc3O)N=C2c2ccccc2)c(=O)n(-c2ccccc2)n1C	87.4 µM	> 100 µM	3.83 µM	> 100 µM	> 100 µM	> 100 µM	> 100 µM	> 100 µM	40.2 µM	> 100 µM	54.4 µM	> 100 µM	> 100 µM	> 100 µM	19.4 µM	46.1 µM			> 100 µM	53.8 µM
O=C(Nc1ccccc1[N+](=O)[O-])c1ccccc1						> 100 µM		> 100 µM		> 100 µM		> 100 µM		> 100 µM		> 100 µM		> 100 µM	> 100 µM	
COc1ccc(/C=C(/C(=O)O)c2cc(OC)c(OC)c(OC)c2)cc1						> 100 µM		> 100 µM		> 100 µM		> 100 µM				> 100 µM		> 100 µM		
CC(=O)OCCc1cccnc1/C=N/O						> 100 µM		> 100 µM		> 100 µM		> 100 µM		> 100 µM		> 100 µM		> 100 µM	> 100 µM	
O=C(/C=C/c1cccs1)c1ccc(Cl)cc1		> 100 µM		> 100 µM		> 100 µM		> 100 µM		> 100 µM		> 100 µM		> 100 µM		> 100 µM		48.9 µM		
Clc1cccc(NC=Nc2ccc(-c3nc4ccccc4s3)cc2)c1	16.4 µM	38.8 µM	9.44 µM	35.6 µM	9.11 µM	20.4 µM	16.1 µM	48.1 µM	7.85 µM	15.4 µM	15.2 µM	> 50 µM	9.48 µM	20 µM	42.3 µM	> 50 µM				
NC1(CCCCCCCCCCC(=O)O)CNCCNCCNCCNC1						> 100 µM		> 100 µM				77.6 µM				91.6 µM		> 100 µM	> 100 µM	
C[C@]12CCC(=O)C=C1CC[C@@H]1C2CC[C@]2(C)NC(=O)C(C#N)CC12 (some centres undefined)						> 100 µM		> 100 µM		> 100 µM				> 100 µM		> 100 µM		> 100 µM	> 100 µM	
O=C(O/N=C1/CCC/C1=C\c1ccccc1)c1ccc([N+](=O)[O-])cc1						> 100 µM		> 100 µM		> 100 µM				> 100 µM		> 100 µM		> 100 µM	> 100 µM	
CN1CCCNCCN(CCc2ccccn2)CCCN(C)CC1						> 100 µM		> 100 µM		> 100 µM		> 100 µM		> 62.6 µM		> 100 µM		> 100 µM		
O=C(N/N=C/c1cccc(O)c1O)N/N=C/c1cccc(O)c1O						> 100 µM		> 100 µM		> 100 µM		> 100 µM		> 100 µM				46.8 µM	86.4 µM	
C/C(=N\NC(N)=S)c1ccc(C)cc1C						> 100 µM		> 100 µM		> 100 µM				> 100 µM		> 100 µM		> 100 µM	75.2 µM	
